Laboratory results from US20230355578A1, “PHARMACEUTICAL COMBINATIONS OF STATINS AND FIBRATES FOR THE TREATMENT AND PREVENTION OF […] AND CARDIOVASCULAR DISEASE” (LABORATORIOS SILANES S.A. DE C.V., priority 2020, published 2023).
Read-outs that look alike come from different tables or passages of the source.

Assays:
OATP1B1 = molecular target: T1, OATP1B1 (Homo sapiens, UniProt Q9Y6L6); conditions: Wong, 2006, Yamazaki, 2005; cited from earlier work
T1 sequence (Q9Y6L6 1-691): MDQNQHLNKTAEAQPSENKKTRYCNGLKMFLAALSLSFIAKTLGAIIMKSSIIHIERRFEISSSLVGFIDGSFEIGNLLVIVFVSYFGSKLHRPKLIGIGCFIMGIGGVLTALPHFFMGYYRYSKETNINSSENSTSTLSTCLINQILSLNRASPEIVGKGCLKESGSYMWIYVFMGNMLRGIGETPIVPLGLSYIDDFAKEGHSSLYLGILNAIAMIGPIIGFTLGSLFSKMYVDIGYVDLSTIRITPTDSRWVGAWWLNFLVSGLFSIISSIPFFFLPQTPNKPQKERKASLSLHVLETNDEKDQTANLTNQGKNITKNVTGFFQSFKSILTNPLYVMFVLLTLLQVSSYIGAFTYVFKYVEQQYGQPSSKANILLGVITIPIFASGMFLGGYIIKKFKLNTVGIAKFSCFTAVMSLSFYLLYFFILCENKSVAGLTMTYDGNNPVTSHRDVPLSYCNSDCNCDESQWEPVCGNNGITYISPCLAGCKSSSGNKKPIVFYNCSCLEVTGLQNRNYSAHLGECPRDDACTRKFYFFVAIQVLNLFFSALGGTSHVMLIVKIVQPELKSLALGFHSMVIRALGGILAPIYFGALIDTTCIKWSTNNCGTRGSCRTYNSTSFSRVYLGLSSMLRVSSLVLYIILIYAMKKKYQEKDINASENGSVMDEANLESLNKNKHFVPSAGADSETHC

cytochrome P450 = conditions: Wong, 2006, Yamazaki, 2005; cited from earlier work
P-gp = P-gp (Homo sapiens, UniProt P08183); conditions: Wong, 2006, Yamazaki, 2005; cited from earlier work
Sequence of P-gp (P08183 whole entry): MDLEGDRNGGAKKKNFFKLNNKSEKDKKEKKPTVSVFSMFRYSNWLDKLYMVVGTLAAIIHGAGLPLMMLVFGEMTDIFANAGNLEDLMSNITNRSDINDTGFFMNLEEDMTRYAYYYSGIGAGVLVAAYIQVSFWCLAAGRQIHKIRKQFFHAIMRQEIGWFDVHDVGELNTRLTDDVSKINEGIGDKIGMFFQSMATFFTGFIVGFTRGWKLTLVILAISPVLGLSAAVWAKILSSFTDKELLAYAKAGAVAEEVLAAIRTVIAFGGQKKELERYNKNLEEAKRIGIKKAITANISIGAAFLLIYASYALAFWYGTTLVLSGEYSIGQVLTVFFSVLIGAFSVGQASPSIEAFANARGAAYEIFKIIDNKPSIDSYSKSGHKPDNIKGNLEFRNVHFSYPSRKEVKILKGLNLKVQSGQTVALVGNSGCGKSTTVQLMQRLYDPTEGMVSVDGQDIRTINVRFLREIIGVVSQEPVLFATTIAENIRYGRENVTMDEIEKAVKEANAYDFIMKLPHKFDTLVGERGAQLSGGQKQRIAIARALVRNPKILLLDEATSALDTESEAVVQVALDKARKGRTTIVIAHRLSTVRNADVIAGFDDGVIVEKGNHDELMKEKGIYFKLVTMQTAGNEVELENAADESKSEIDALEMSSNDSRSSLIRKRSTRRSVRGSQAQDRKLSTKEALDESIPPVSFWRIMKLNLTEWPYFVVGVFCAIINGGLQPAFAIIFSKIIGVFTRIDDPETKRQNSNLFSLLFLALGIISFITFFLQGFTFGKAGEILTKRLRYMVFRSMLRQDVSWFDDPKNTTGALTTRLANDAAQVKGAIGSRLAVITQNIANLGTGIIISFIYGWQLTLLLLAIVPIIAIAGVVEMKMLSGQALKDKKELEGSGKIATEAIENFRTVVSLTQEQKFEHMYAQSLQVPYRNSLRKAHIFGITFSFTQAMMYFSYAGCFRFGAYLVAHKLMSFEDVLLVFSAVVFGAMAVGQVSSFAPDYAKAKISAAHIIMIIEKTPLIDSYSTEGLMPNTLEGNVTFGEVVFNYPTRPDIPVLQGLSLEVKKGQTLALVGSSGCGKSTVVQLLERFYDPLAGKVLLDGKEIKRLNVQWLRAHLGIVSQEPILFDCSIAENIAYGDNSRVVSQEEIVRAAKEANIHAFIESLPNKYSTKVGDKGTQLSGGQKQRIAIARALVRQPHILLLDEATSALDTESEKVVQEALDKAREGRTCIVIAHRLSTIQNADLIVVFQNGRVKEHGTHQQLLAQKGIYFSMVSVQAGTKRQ

[1] = cited from earlier work
[2] = Particle size distribution by laser beam diffraction; type: physicochemical
Experimental: The determination of the particle size distribution by laser beam diffraction for micronized fenofibrate was carried out using a DPS module in a particle size analyzer.
Determination of particle size distribution by laser beam diffraction was carried out for micronized fenofibrate by placing 0.5 g of the raw material in a sample holder and using a DPS module in the particle size analyzer to obtain an obscuration of 4-7%. The determination is made in duplicate.

particle size distribution (100%) [2] | particle size distribution (d10) [2] [μm] | particle size distribution (d50) [2] [μm] | particle size distribution (d90) [2] [μm] | Compound | drug-drug interaction potential by inhibition of OATP1B1 (OATP1B1) | metabolism via cytochrome P450 (cytochrome P450) | inhibition of P-gp-mediated transport (P-gp) | concentrations reported in the literature ([1]; Back, 2018, Moffat, 2011) | concentrations reported in the literature ([1]; Chou, 2013) [ng/mL]
 |  |  |  | CC(C)(Oc1ccc(C(=O)c2ccc(Cl)cc2)cc1)C(=O)O [fenofibric acid] | do not have a potential to cause a clinically significant drug-drug interaction by inhibition of OATP1B1 | are not metabolized via cytochrome P450 | do not significantly inhibit P-gp-mediated transport | 3.17-30 μm/mL | 
less than 30 μm | ≤ 0.95 | ≤ 5.35 | ≤ 11.28 | CC(C)OC(=O)C(C)(C)Oc1ccc(C(=O)c2ccc(Cl)cc2)cc1 [fenofibrate] | do not have a potential to cause a clinically significant drug-drug interaction by inhibition of OATP1B1 | are not metabolized via cytochrome P450 | do not significantly inhibit P-gp-mediated transport |  | 
 |  |  |  | CC(C)c1c(C(=O)Nc2ccccc2)c(-c2ccccc2)c(-c2ccc(F)cc2)n1CC[C@@H](O)C[C@@H](O)CC(=O)O [atorvastatin] |  |  |  |  | 2.5 to 50.1
